Measurements from patent publication US12077503B2, “Substituted cyclic amides and their use as herbicides” (FMC CORPORATION, priority 2015, dated 2024).
Like-named read-outs stand apart in the source and are kept apart here.

Experiments:
Experiment in all cases: Test A postemergence
Format in all cases: in vivo
[1] = test system: blackgrass (Alopecurus myosuroides); settings: Alopecurus myosuroides, post-emergence, 240 h; for pest or weed control at 125 g/ha: 125 g ai/ha; for pest or weed control at 500 g/ha: 500 g ai/ha, visual injury, 0 to 100 scale (0 no effect, 100 complete control), approx. 10 d
How it was run: (§1)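 Greenhouse, ~10 d after spray; visual injury vs untreated controls, 0 = no effect, 100 = complete control. Preemergence: directed soil spray over planted seeds. Postemergence: plants 2–10 cm, 1–2 leaf stage. Loam/sand blend. Compound in non-phytotoxic solvent with surfactant.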

corn (Zea mays) = settings: Zea mays, post-emergence, 240 h; for plant injury at 125 g/ha / Corn plant response rating (crop injury, 0 = no effect, 100 = complete kill) at 125 g/ha: 125 g ai/ha; for plant injury at 125 g/ha / Corn plant response rating (crop injury, 0 = no effect, 100 = complete kill) at 500 g/ha: postemergence; for plant injury at 125 g/ha: visual injury rating after approximately 10 d, read-out: Corn plant response rating (0 to 100 scale, 0 no effect, 100 complete control); for Corn plant response rating (crop injury, 0 = no effect, 100 = complete kill) at 125 g/ha: Postemergence, visual injury after approximately 10 d, 0 to 100 scale where 0 is no effect and 100 is complete control; for Corn plant response rating (crop injury, 0 = no effect, 100 = complete kill) at 500 g/ha: 500 g ai/ha, visual injury, 0 to 100 scale (0 no effect, 100 complete control), approx. 10 d
How it was run: as §1

[2] = test system: ryegrass, Italian (Italian ryegrass, Lolium multiflorum); settings: Lolium multiflorum, post-emergence, 240 h; for pest or weed control at 125 g/ha: 125 g ai/ha; for pest or weed control at 500 g/ha: 500 g ai/ha, visual injury, 0 to 100 scale (0 no effect, 100 complete control)
How it was run: as §1

[3] = test system: Galium (catchweed bedstraw, Galium aparine); settings: Galium, post-emergence, 240 h; for pest or weed control at 125 g/ha: 125 g ai/ha; for pest or weed control at 500 g/ha: 500 g ai/ha, visual injury, 0 to 100 scale (0 no effect, 100 complete control)
How it was run: as §1

[4] = test system: ragweed (common ragweed, Ambrosia elatior); settings: Ambrosia artemisiifolia, post-emergence, 240 h; for pest or weed control at 125 g/ha: 125 g ai/ha; for pest or weed control at 500 g/ha: 500 g ai/ha, visual injury, 0 to 100 scale (0 no effect, 100 complete control)
How it was run: as §1

[5] = test system: pigweed (Amaranthus retroflexus); settings: Amaranthus retroflexus, post-emergence, 240 h; for pest or weed control at 125 g/ha: 125 g ai/ha; for pest or weed control at 500 g/ha: 500 g ai/ha, visual injury, 0 to 100 scale (0 no effect, 100 complete control)
How it was run: as §1

[6] = postemergence, visual injury rating after approximately 10 d, read-out: Blackgrass plant response rating (0 to 100 scale, 0 no effect, 100 complete control)
[7] = postemergence, visual injury rating after approximately 10 d, read-out: Ryegrass, Italian plant response rating (0 to 100 scale, 0 no effect, 100 complete control)
[8] = postemergence, visual injury rating after approximately 10 d, read-out: Galium plant response rating (0 to 100 scale, 0 no effect, 100 complete control)
[9] = postemergence, visual injury rating after approximately 10 d, read-out: Ragweed plant response rating (0 to 100 scale, 0 no effect, 100 complete control)
[10] = postemergence, visual injury rating after approximately 10 d, read-out: Pigweed plant response rating (0 to 100 scale, 0 no effect, 100 complete control)
[11] = Postemergence, visual injury after approximately 10 d, 0 to 100 scale where 0 is no effect and 100 is complete control, read-out: Plant response rating, Blackgrass
[12] = Postemergence, visual injury after approximately 10 d, 0 to 100 scale where 0 is no effect and 100 is complete control, read-out: Plant response rating, Ryegrass, Italian
[13] = Postemergence, visual injury after approximately 10 d, 0 to 100 scale where 0 is no effect and 100 is complete control, read-out: Plant response rating, Galium
[14] = Postemergence, visual injury after approximately 10 d, 0 to 100 scale where 0 is no effect and 100 is complete control, read-out: Plant response rating, Ragweed
[15] = Postemergence, visual injury after approximately 10 d, 0 to 100 scale where 0 is no effect and 100 is complete control, read-out: Plant response rating, Pigweed
[16] = postemergence, read-out: Plant response rating, Blackgrass
[17] = postemergence, approx. 10 d, read-out: Plant response rating, Ryegrass, Italian
[18] = postemergence, approx. 10 d, read-out: Plant response rating, Galium
[19] = postemergence, approx. 10 d, read-out: Plant response rating, Ragweed
[20] = postemergence, approx. 10 d, read-out: Plant response rating, Pigweed
[21] = postemergence, visual injury on 0 to 100 scale (0 no effect, 100 complete control), approx. 10 d, read-out: Ryegrass, Italian plant response rating
[22] = postemergence, visual injury on 0 to 100 scale (0 no effect, 100 complete control), approx. 10 d, read-out: Galium plant response rating
[23] = postemergence, visual injury on 0 to 100 scale (0 no effect, 100 complete control), approx. 10 d, read-out: Ragweed plant response rating
[24] = postemergence, visual injury on 0 to 100 scale (0 no effect, 100 complete control), approx. 10 d, read-out: Pigweed plant response rating

Row | Compound | pest or weed control at 125 g/ha [1, 11] | Corn plant response rating (crop injury, 0 = no effect, 100 = complete kill) at 125 g/ha (corn (Zea mays)) | pest or weed control at 125 g/ha [2, 12] | pest or weed control at 125 g/ha [3, 13] | pest or weed control at 125 g/ha [4, 14] | pest or weed control at 125 g/ha [5, 15] | pest or weed control at 500 g/ha [1, 16] | Corn plant response rating (crop injury, 0 = no effect, 100 = complete kill) at 500 g/ha (corn (Zea mays)) | pest or weed control at 500 g/ha [2, 17] | pest or weed control at 500 g/ha [3, 18] | pest or weed control at 500 g/ha [4, 19] | pest or weed control at 500 g/ha [5, 20] | also measured
1 | CN1C[C@H](c2cc(F)c(C(F)(F)F)c(F)c2)[C@@H](C(=O)Nc2ccccc2S(C)(=O)=O)C1=O [Compound 900] | – | – | – | – | – | – | – | – | – | – | – | – | pest or weed control at 125 g/ha [1, 6]: 40%; plant injury at 125 g/ha (corn (Zea mays)): 50%; pest or weed control at 125 g/ha [2, 7]: 40%; pest or weed control at 125 g/ha [3, 8]: 20%; pest or weed control at 125 g/ha [4, 9]: 10%; pest or weed control at 125 g/ha [5, 10]: 50%
2 | CN1C[C@H](c2cc(F)c(C(F)(F)F)c(F)c2)[C@@H](C(=O)Nc2ccc(F)cc2F)C1=O [Compound 901] | – | – | – | – | – | – | – | – | – | – | – | – | pest or weed control at 125 g/ha [1, 6]: 20%; plant injury at 125 g/ha (corn (Zea mays)): 40%; pest or weed control at 125 g/ha [2, 7]: 0%; pest or weed control at 125 g/ha [3, 8]: 0%; pest or weed control at 125 g/ha [4, 9]: 0%; pest or weed control at 125 g/ha [5, 10]: 0%
3 | CCOc1ccc([C@H]2CN(C)C(=O)[C@@H]2C(=O)Nc2ccc(F)cc2F)cc1 [Compound 905] | – | – | – | – | – | – | – | – | – | – | – | – | pest or weed control at 125 g/ha [1, 6]: 0%; plant injury at 125 g/ha (corn (Zea mays)): 0%; pest or weed control at 125 g/ha [2, 7]: 0%; pest or weed control at 125 g/ha [3, 8]: 0%; pest or weed control at 125 g/ha [4, 9]: 0%; pest or weed control at 125 g/ha [5, 10]: 0%
4 | CCOc1ccc([C@H]2CNC(=O)[C@@H]2C(=O)Nc2ccc(F)cc2F)cc1 [Compound 908] | – | – | – | – | – | – | – | – | – | – | – | – | pest or weed control at 125 g/ha [1, 6]: 0%; plant injury at 125 g/ha (corn (Zea mays)): 0%; pest or weed control at 125 g/ha [2, 7]: 0%; pest or weed control at 125 g/ha [3, 8]: 0%; pest or weed control at 125 g/ha [4, 9]: 0%; pest or weed control at 125 g/ha [5, 10]: 0%
5 | CON1CC[C@H](c2ccc(F)cc2)[C@@H](C(=O)Nc2cccc(F)c2F)C1=O [Compound 918] | 40% | 0% | 0% | 0% | 0% | 0% | – | – | – | – | – | – | –
6 | CN1CC[C@H](c2cccc(C(F)(F)F)c2)[C@@H](C(=O)Nc2ccccc2S(C)(=O)=O)C1=O [Compound 920] | 0% | 0% | 0% | 0% | 0% | 0% | – | – | – | – | – | – | –
7 | CN1CC[C@H](c2cccc(Cl)c2)[C@@H](C(=O)Nc2cccc(F)c2F)C1=O [Compound 921] | 20% | 20% | 20% | 0% | 0% | 0% | – | – | – | – | – | – | –
8 | Cc1cc([C@H]2CN(C)C(=O)[C@@H]2C(=O)Nc2ccccc2F)ccc1Cl [Compound 928] | 30% | 40% | 50% | 50% | 0% | 20% | – | – | – | – | – | – | –
9 | Cc1cc([C@H]2CN(C)C(=O)[C@@H]2C(=O)Nc2ccc(F)cc2F)ccc1Cl [Compound 930] | 20% | 40% | 30% | 40% | 0% | 30% | – | – | – | – | – | – | –
10 | Cc1ccc([C@H]2CN(C)C(=O)[C@@H]2C(=O)Nc2cccc(F)c2C)cc1Cl [Compound 1014] | 0% | 70% | 30% | 20% | 0% | 30% | 50% | 90% | 60% | 60% | 30% | 30% | –
11 | CC(=O)Oc1ccc(F)c(NC(=O)[C@H]2C(=O)N(C)C[C@@H]2c2cc(F)cc(F)c2)c1 [Compound 1019] | 0% | 0% | 0% | 0% | 0% | 0% | 0% | 0% | 0% | 0% | 0% | 0% | –
12 | O=C1NC[C@H](c2ccc3c(c2)OCO3)[C@H]1C(=O)Nc1ccc(F)cc1F [Compound 1026] | 0% | 0% | 0% | 0% | 0% | 0% | 0% | 30% | 0% | 50% | 0% | 0% | –
13 | CC(C)COc1cccc([C@H]2CN(C)C(=O)[C@@H]2C(=O)Nc2ccc(F)cc2F)c1 [Compound 1030] | 0% | 20% | – | – | – | – | 60% | 50% | 0% | 60% | 0% | 0% | pest or weed control at 125 g/ha [2, 21]: 0%; pest or weed control at 125 g/ha [3, 22]: 40%; pest or weed control at 125 g/ha [4, 23]: 0%; pest or weed control at 125 g/ha [5, 24]: 0%
14 | O=C(Nc1ccccc1F)[C@H]1C(=O)N(C2CC2)CC[C@@H]1c1ccccc1 [Compound 1031] | 0% | 0% | – | – | – | – | 0% | 0% | 0% | 0% | 0% | 0% | pest or weed control at 125 g/ha [2, 21]: 0%; pest or weed control at 125 g/ha [3, 22]: 0%; pest or weed control at 125 g/ha [4, 23]: 0%; pest or weed control at 125 g/ha [5, 24]: 0%
